Source: patent publication US20060246178A1, “Fermented milk product comprising tripeptide vpp and/or ipp” (priority 2003, published 2006)
pIC50: −log10 of the molar value.

Columns and labels:
[1] = molecular target: Angiotensin I Converting Enzyme (ACE) (Homo sapiens, UniProt P12821); settings: literature (Kohmura 1990; Nakamura 1995); read-out: IC50, the concentration which results in 50% inhibition of the ACE activity; cited from earlier work
[2] = molecular target: ACE (Homo sapiens, UniProt P12821); assay: ACE inhibition activity assay with fluorogenic substrate Abz-FRK(Dnp)P-OH; type: biochemical; settings: standard, 5 μM end-concentration
Sequence of ACE (P12821 30-1306, species assumed): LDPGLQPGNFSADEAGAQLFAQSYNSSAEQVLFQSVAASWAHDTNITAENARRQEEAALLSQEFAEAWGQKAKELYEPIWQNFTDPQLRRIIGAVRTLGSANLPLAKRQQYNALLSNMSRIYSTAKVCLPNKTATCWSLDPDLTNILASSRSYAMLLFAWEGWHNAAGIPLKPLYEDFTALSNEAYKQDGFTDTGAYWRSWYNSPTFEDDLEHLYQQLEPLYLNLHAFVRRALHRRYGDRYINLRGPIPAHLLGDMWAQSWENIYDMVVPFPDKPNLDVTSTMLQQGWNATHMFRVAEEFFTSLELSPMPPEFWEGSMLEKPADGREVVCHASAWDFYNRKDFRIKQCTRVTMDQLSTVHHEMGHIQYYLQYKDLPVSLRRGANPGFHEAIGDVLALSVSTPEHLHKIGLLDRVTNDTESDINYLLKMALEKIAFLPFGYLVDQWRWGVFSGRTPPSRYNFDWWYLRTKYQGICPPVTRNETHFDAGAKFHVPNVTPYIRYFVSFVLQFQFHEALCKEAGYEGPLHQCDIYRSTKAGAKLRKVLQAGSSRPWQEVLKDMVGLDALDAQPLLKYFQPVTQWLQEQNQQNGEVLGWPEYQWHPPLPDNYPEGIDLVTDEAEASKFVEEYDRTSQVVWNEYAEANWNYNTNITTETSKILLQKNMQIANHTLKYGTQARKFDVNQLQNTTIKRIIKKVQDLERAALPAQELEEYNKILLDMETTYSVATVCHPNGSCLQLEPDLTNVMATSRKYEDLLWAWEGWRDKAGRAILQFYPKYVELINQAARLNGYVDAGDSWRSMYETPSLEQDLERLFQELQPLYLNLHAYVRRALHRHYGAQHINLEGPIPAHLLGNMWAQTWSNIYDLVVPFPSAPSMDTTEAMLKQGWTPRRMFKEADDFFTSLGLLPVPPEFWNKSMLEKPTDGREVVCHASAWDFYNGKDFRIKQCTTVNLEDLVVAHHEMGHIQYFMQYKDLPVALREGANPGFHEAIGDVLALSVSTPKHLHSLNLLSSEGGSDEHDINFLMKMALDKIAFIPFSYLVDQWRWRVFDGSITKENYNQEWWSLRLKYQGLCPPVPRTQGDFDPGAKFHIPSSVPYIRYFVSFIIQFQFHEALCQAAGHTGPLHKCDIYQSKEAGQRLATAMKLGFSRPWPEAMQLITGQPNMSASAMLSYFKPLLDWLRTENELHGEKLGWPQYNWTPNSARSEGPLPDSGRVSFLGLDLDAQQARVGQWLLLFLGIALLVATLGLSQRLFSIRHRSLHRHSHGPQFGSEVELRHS
Experimental: When ACE cleaves the R—K bond of the fluorogenic substrate, the distance of the quencher (Dnp) with regard to the fluorescent group (Abz) will be enlarged resulting in a fluorescent signal.
This signal is direct related to the ACE activity and is measured with a fluorometer.
Samples were prepared as follows:
The fermented milk was transferred to a centrifuge tube. The pH was adjusted to 4.0±0.1 by adding a few μl of 6 M HCl and centrifuged for 5-10 minutes at 4.000×g at room temperature (RT). The supernatant was transferred to a tube and the pH was adjusted to 7.0±0.1 by adding a few μl of 6 M NaOH. The pH-adjusted sample was transferred to an Eppendorf tube and centrifuged for ten minutes at 14.000 rpm at RT. The supernatant was transferred to a tube and ready for the ACE inhibition activity assay. If sample was not processed immediately, it was stored at −20° C.
The slope/second is a measure for the activity of ACE.
As a standard, Captopril (1 nM end-concentration) or IPP (5 μM end-concentration) was used.

Sequence of Angiotensin I Converting Enzyme (ACE) (P12821 30-1306, species assumed): as above

| inhibition of the ACE activity [2] | Substance | pIC50 [1] |
| --- | --- | --- |
| about 30% | Ile-Pro-Pro [IPP] | 5.30 |
| – | Val-Pro-Pro [VPP] | 5.05 |
